Test results reported in patent US12404283B2, “c-MYC mRNA translation modulators and uses thereof in the treatment of cancer” (Anima Biotech Inc., priority 2022, dated 2025).

The compounds below were run on c-Myc (assay: c-Myc immunofluorescence assay). Settings: A549 cells, 24 hours treatment, anti-c-Myc immunofluorescence.
Format: cell-based, human
Method in brief: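 A549 cells grown 48 h, exposed 24 h to rising compound concentrations, then fixed, permeabilised and stained for c-Myc plus DAPI. Nuclear-segmented c-Myc fluorescence quantified by high-content imaging at 20×; EC50 from logistic dose–response fits.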
CCN1CCC[C@H]1CNC(=O)c1ccc2c(c1)sc1nc(-c3cccc(OC)c3)cn12 [compound 119, (S)-N-((1-ethylpyrrolidin-2-yl)methyl)-2-(3-methoxyphenyl)benzo[d] imidazo[2,1-b]thiazole-7-carboxamide] was tested, and the “Myc Efficacy (−LogEC50)” value was “++ (++ ≥5 and <6)”.
In the case of Cc1ccc(-c2cn3c(n2)sc2cc(C(=O)NCCN)ccc23)cc1 [compound 122, N-(2-aminoethyl)-2-(p-tolyl)benzo[d]imidazo[2,1-b]thiazole-7-carboxamide], the “Myc Efficacy (−LogEC50)” value is reported as “+ (+ >3 and <5)”.
For CCN(CC)CCCNC(=O)c1ccc2c(c1)sc1nc(-c3ccccc3C)cn12 [compound 123, N-(3-(diethylamino)propyl)-2-(o-tolyl)benzo[d]imidazo [2,1-b]thiazole-7-carboxamide], the “Myc Efficacy (−LogEC50)” value was “++ (++ ≥5 and <6)”.
CCN(CC)CCCNC(=O)c1ccc2c(c1)sc1nc(-c3ccccc3Cl)cn12 [compound 124, 2-(2-ehlorophenyl)-N-(3-(diethylamino)propyl)benzo [d]imidazo[2,1-b]thiazole-7-carboxamide] was tested, and the “Myc Efficacy (−LogEC50)” value was “++ (++ ≥5 and <6)”.
With CCN(CC)CCCNC(=O)c1ccc2c(c1)sc1nc(-c3ccc(C(=O)NC)cc3)cn12 [compound 125, N-(3-(diethylamino)propyl)-2-(4-(methylcarbamoyl)phenyl) benzo[d]imidazo[2,1-b]thiazole-7-carboxamide] the “Myc Efficacy (−LogEC50)” value was “++ (++ ≥5 and <6)”.
In the case of CCc1ccc(-c2cn3c(n2)sc2cc(C(=O)NCCCN(CC)CC)ccc23)cc1 [compound 126, N-(3-(diethylamino)propyl)-2-(4-ethylphenyl)benzo[d] imidazo[2,1-b]thiazole-7-carboxamide], the “Myc Efficacy (−LogEC50)” value is reported as “++ (++ ≥5 and <6)”.
With CCN1CCC[C@@H]1CNC(=O)c1ccc2c(c1)sc1nc(-c3cccc(OC)c3)cn12 [compound 127, (R)-N-((1-ethylpyrrolidin-2-yl)methyl)-2-(3-methoxyphenyl)benzo[d] imidazo[2,1-b]thiazole-7-carboxamide] the “Myc Efficacy (−LogEC50)” value was “+ (+ >3 and <5)”.
For CCN(CC)CCCNC(=O)c1ccc2c(c1)sc1nc(-c3ccccc3F)cn12 [compound 129, N-(3-(diethylamino)propyl)-2-(2-fluorophenyl)benzo[d] imidazo[2,1-b]thiazole-7-carboxamide], the “Myc Efficacy (−LogEC50)” value was “++ (++ ≥5 and <6)”.
For CCN(CC)CCCNC(=O)c1ccc2c(c1)sc1nc(-c3cccc(F)c3)cn12 [compound 130, N-(3-(diethylamino)propyl)-2-(3-fluorophenyl)benzo[d] imidazo[2,1-b]thiazole-7-carboxamide], the “Myc Efficacy (−LogEC50)” value was “++ (++ ≥5 and <6)”.
With CCN(CC)CCCNC(=O)c1ccc2c(c1)sc1nc(-c3cccc(Cl)c3)cn12 [compound 131, 2-(3-chlorophenyl)-N-(3-(diethylamino)propyl)benzo [d]imidazo[2,1-b]thiazole-7-carboxamide] the “Myc Efficacy (−LogEC50)” value was “++ (++ ≥5 and <6)”.
For O=C(NCCCN1CCCCC1)c1ccc2c(c1)sc1nc(-c3ccc(Cl)cc3)cn12 [compound 132, 2-(4-chlorophenyl)-N-(3-(piperidin-1-yl)propyl) benzo[d]imidazo[2,1-b]thiazole-7-carboxamide], the “Myc Efficacy (−LogEC50)” value was “++ (++ ≥5 and <6)”.
With Cc1cccc(-c2cn3c(n2)sc2cc(C(=O)NCCCN4CCC(F)(F)CC4)ccc23)c1 [compound 133, N-(3-(4,4-difluoropiperidin-1-yl)propyl)-2-(m-tolyl)benzo[d]imidazo[2,1-b]thiazole-7-carboxamide] the “Myc Efficacy (−LogEC50)” value was “++ (++ ≥5 and <6)”.
Cc1cccc(-c2cn3c(n2)sc2cc(C(=O)NCCCN4CCOCC4)ccc23)c1 [compound 134, N-(3-morpholinopropyl)-2-(m-tolyl)benzo[d]imidazo[2,1-b]thiazole-7-carboxamide] was tested, and the “Myc Efficacy (−LogEC50)” value was “+ (+ >3 and <5)”.
In the case of Cc1cccc(-c2cn3c(n2)sc2cc(C(=O)NCCCN4CCS(=O)(=O)CC4)ccc23)c1 [compound 135, N-(3-(1,1-dioxidothiomorpholino)propyl)-2-(m-tolyl)benzo[d]imidazo[2,1-b]thiazole-7-carboxamide], the “Myc Efficacy (−LogEC50)” value is reported as “+ (+ >3 and <5)”.
